Test results reported in US9382306B2, “Octapeptide compounds derived from somatostatin and the therapeutic use thereof” (IPSEN PHARMA S.A.S., priority 2008, dated 2016).
In brackets after ≈: the same amount, converted by molar mass. Several values for one entry are separate records, joined by “and”; a condition that tells them apart may be missing. Equal values may be shown once. Bridge positions count the residues as written; N and C are the ends. Square brackets hold non-standard residues; d marks the D form. Peptide text beside a SMILES is read from it. ξ: configuration not given here. dPhe(4-NO2) = N[C@H](Cc1ccc([N+](=O)[O-])cc1)C(=O)O; dPhe(3,5-F2) = N[C@H](Cc1cc(F)cc(F)c1)C(=O)O; dPhe(3-Br) = N[C@H](Cc1cccc(Br)c1)C(=O)O; dPhe(3-F) = N[C@H](Cc1cccc(F)c1)C(=O)O; dPhe(4-F) = N[C@H](Cc1ccc(F)cc1)C(=O)O; d2Nal = N[C@H](Cc1ccc2ccccc2c1)C(=O)O; dPhe(2-F) = N[C@H](Cc1ccccc1F)C(=O)O; Thr(3ξ) = CC(O)[C@H](N)C(=O)O

How the values were obtained:
[1] = biological target: T1, somatostatin receptors sub-type 5 (Homo sapiens, UniProt P35346); experiment: Affinity for somatostatin receptors: inhibition of [125I-Tyr11]SRIF-14 binding to membranes of transfected CHO-K1 cells; conditions: competitive inhibition of [125I-Tyr11]SRIF-14 binding, 37° C.
T1 construct: expressed in transfected cells; membrane preparations
T1 sequence (P35346 whole entry): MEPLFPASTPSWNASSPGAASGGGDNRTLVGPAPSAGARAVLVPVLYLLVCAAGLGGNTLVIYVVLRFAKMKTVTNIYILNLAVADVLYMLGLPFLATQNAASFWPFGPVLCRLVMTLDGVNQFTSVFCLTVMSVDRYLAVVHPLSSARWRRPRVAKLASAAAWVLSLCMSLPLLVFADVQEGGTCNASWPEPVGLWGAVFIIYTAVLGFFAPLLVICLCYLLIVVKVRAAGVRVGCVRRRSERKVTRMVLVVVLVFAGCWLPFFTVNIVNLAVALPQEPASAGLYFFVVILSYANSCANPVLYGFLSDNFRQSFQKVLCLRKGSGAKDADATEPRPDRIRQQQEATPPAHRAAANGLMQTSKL
Protocol: (§1) The affinity of the compounds of the invention for the somatostatin receptors is determined by measurement of the inhibition of the bond of [125I-Tyr11]SRIF-14 to membrane preparations of transfected CHO-K1 cells.
(§2) The CHO-K1 cells expressing in a stable fashion each of the sub-types of somatostatin receptors are collected with 0.5 mM of EDTA and centrifuged at 500 g for 5 minutes at 4° C. The pellet is re-suspended in phosphate buffer (PBS) and centrifuged at 500 g for 5 minutes at 4° C. The pellet is re-suspended in Tris 50 mM buffer at pH 7.4 and centrifuged at 500 g for 5 minutes at 4° C. The cells are lyzed by sonication and centrifuged at 39,000 g for 10 minutes. The pellet is re-suspended in Tris 50 mM buffer at pH 7.4, an aliquot is removed for assaying the proteins and the remainder is centrifuged at 50,000 g for 10 minutes. The membranes obtained in this last pellet are stored at −80° C.
(§3) Measurement of the competitive inhibition of the bond of [125I-Tyr11]SRIF-14 (Perkin Elmer) on each of the sub-types of somatostatin receptors is carried out in duplicate in 96-well polypropylene plates. The cell membranes (5 to 20 µg of proteins/well) are incubated with [125I-Tyr11]SRIF-14 (0.05 to 0.1 nM) for 50 to 90 minutes at 37° C. (conditions dependent on the sub-type of receptor) in a HEPES buffer medium 50 mM pH 7.4, comprising 0.2% bovine serum albumin (BSA), MgCl2 5 mM, Trasylol 200 KIU/mL, Bacitracin 0.02 mg/mL, phenylmethylsulphonyl fluoride 0.02 mg/mL.
(§4) The bound [125I-Tyr11]SRIF-14 is separated from the free [125I-Tyr11]SRIF-14 by filtration through GF/C glass fibre plates (Unifilter, Perkin Elmer) pre-impregnated with 0.1% polyethylenimine (P.E.I.), using a Filtermate 96 (Perkin Elmer). The filters are washed with Tris-HCl buffer 50 mM, pH 7.4 at 4° C. and the radioactivity present is determined using a counter (TopCount, Perkin Elmer).
(§5) The data are analyzed by computer-assisted non-linear regression using XLfit 4.2 (IDBS) software.

[2] = biological target: T2, somatostatin receptors sub-type 2 (Homo sapiens, UniProt P30874); experiment: as above; conditions: competitive inhibition of [125I-Tyr11]SRIF-14 binding, 37° C.
T2 construct: expressed in transfected cells; membrane preparations
T2 sequence (P30874 whole entry): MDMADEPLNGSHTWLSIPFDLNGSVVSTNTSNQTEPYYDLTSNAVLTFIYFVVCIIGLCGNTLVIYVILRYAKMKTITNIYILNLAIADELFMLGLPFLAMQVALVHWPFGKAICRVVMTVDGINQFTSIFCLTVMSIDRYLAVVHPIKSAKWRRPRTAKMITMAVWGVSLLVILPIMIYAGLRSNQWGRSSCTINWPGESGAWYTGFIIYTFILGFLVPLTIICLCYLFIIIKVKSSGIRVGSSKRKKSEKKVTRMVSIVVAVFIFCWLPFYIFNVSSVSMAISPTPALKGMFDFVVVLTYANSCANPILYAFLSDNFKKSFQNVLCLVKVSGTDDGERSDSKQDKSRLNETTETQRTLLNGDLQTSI
Protocol: as §1, §2, §3, §4, §5

[3] = Self-assembly study: putting peptides in solution in water, macroscopic, ATR-FTIR, TEM and SAXS analysis; type: physicochemical; conditions: 3 to 15% by mass of peptide in water; form and diameter of the self-assembled structure, or soluble / insoluble
Description: The procedure used comprises three stages: putting the peptides in solution and macroscopic analysis; spectroscopic and microscopic analyses of the structures formed and by small-angle X-ray scattering (SAXS) analyses.
The first stage of the characterization of the derivatives is the production of a range of concentrations from 3 to 15% by mass of peptide in water. Gelling of the solution indicates the presence of self-assembled structures which can be nanotubes but can also be fibres or other self-organised structures.
The object of this stage is to verify the presence of self-assembled structures, to characterize their self-assembly and to visualize them by microscopy.
Infrared spectroscopy makes it possible to obtain information on the method of stacking the peptides in the self-assemblies. The amide band spectrum, reflecting the absorption spectra of the carbonyl functions of the peptide backbone, gives information on the type of hydrogen bond in which these groups are involved (H bonds leading to the formation of the […], a helix or also a loop or random conformation) and consequently on the secondary and tertiary structure of the peptides in solution and self-assembled. The attenuated total reflection technique (ATR-FTIR) uses a crystal on which the solid or liquid sample is deposited. The infrared light is guided through this crystal at an angle which allows it to be reflected several times inside the crystal, which increases the sensitivity of the technique. Due to the performance of this device, it is then possible perform measurements on relatively dilute solutions. The beam penetrates a few microns into the sample deposited on the crystal, which means that only the molecules/structures which are deposited on the surface of the crystal are analyzed. Moreover, this technique is non-destructive.
The assembled structures are then visualized by transmission electron microscopy (TEM). This very powerful technique, allowing magnifications greater than 500,000 times, is one of the few techniques capable of visualizing structures on the nanometric scale. The sample is subjected to an electron beam. The visualization of the transmitted beam is produced either by a photoluminescent screen, or by a CCD camera. The sample in the microscope being under vacuum, it is samples dried after staining with uranyl salts in order to increase contrast which are observed.
The peptide in solution is firstly deposited on a copper grid covered with a film of carbon. After deposition of the materiel, the excess liquid is eliminated. In the same way, the solution of colorant, in our case uranyl acetate, is deposited on the grid, the excess is eliminated and the grid is dried in the open air. It can then be introduced into the microscope.
The samples, liquids or gels, are introduced into a capillary column and subjected to a monochromatic flow of X-rays. The intensity diffused is measured as a function of the scattering angle with respect to the incident angle.
The diffusion patterns thus obtained must be the subject of a correlation with a close theoretical model of the structures present in the sample. In the case where the peptides have self-assembled in the form of hollow nanotubes, the modelling of the experimental data with the theoretical diffusion produced by infinitely long hollow columns makes it possible to determine with precision the diameter of the columns and to estimate their wall thickness (Valery et al. in Biophysical journal, 2004, 86(4), 2484-2501 and Proc. Natl. Acad. Sci., 2003, 100(18) 10258-10262). For polydisperse, nanotubular, fibrilar, micellar or lamellar self-assemblies, it is the correlation of the spectroscopic, microscopic and XR scattering data which makes it possible to estimate a size range for the objects observed.

[4] = Solubility study before preparative HPLC; type: physicochemical; conditions: water-acetonitrile mixture 58:42; water-acetonitrile solution 58:42
Description: The peptide must be dissolved in a water-acetonitrile mixture in order be injected into the preparative HPLC. A solubility study is first carried out on a small quantity. It allows the optimum percentage of acetonitrile and the maximum quantity of peptide to be established. The lowest possible percentage of acetonitrile with a very high concentration of peptide and a resultant clear solution constitute ideal conditions. By way of example, the solubility of the 4-para-fluorophenylalanine derivative (Example 13 hereafter) was established at 49 g l^−1 in a water-acetonitrile solution 58:42.

Row | Structure (SMILES) | Ki [1] | Ki [2] | solubility [4] | Assembly [3]
1 | CC(C)[C@@H]1NC(=O)[C@H](CCCCN)NC(=O)[C@@H](Cc2ccc(F)cc2)NC(=O)[C@H](Cc2ccc(O)cc2)NC(=O)[C@@H](NC(=O)[C@H](N)Cc2ccc3ccccc3c2)CSSC[C@@H](C(=O)N[C@H](C(N)=O)C(C)O)NC1=O (stereo partly drawn) [Example 13, H-D-2-Nal^1-cyclo(Cys^2-Tyr^3-p-F-D-Phe^4-Lys^5-Val^6-Cys^7)-Thr^8-NH2.2 CH3COOH] (H-[d2Nal]CY[dPhe(4-F)]KVC[Thr(3ξ)]-NH2; disulfide 2-7) | ≤ 1000 nM | ≤ 5 nM | 49 mg/mL (≈ 45.6 mM) | monodisperse peptide nanotubes and 17 nm monodisperse nanotube
2 | CC(C)[C@@H]1NC(=O)[C@H](CCCCN)NC(=O)[C@@H](Cc2ccccc2F)NC(=O)[C@H](Cc2ccc(O)cc2)NC(=O)[C@@H](NC(=O)[C@H](N)Cc2ccc3ccccc3c2)CSSC[C@@H](C(=O)N[C@H](C(N)=O)C(C)O)NC1=O (stereo partly drawn) [Example 16, H-D-2-Nal^1-cyclo(Cys^2-Tyr^3-o-F-D-Phe^4-Lys^5-Val^6-Cys^7)-Thr^8-NH2.2 CH3COOH] (H-[d2Nal]CY[dPhe(2-F)]KVC[Thr(3ξ)]-NH2; disulfide 2-7) | ≤ 1000 nM | ≤ 5 nM | – | monodisperse peptide nanotubes and 17 nm monodisperse nanotube
3 | CC(C)[C@@H]1NC(=O)[C@H](CCCCN)NC(=O)[C@@H](Cc2ccc([N+](=O)[O-])cc2)NC(=O)[C@H](Cc2ccc(O)cc2)NC(=O)[C@@H](NC(=O)[C@H](N)Cc2ccc3ccccc3c2)CSSC[C@@H](C(=O)N[C@H](C(N)=O)C(C)O)NC1=O (stereo partly drawn) [Example 20, H-D-2-Nal^1-cyclo(Cys^2-Tyr^3-p-nitro-D-Phe^4-Lys^5-Val^6-Cys^7)-Thr^8-NH2.2 CH3COOH] (H-[d2Nal]CY[dPhe(4-NO2)]KVC[Thr(3ξ)]-NH2; disulfide 2-7) | ≤ 1000 nM | ≤ 5 nM | – | monodisperse peptide nanotubes and 17.6 nm monodisperse nanotube
4 | CC(C)[C@@H]1NC(=O)[C@H](CCCCN)NC(=O)[C@@H](Cc2ccc(-c3ccccc3)cc2)NC(=O)[C@H](Cc2ccc(O)cc2)NC(=O)[C@@H](NC(=O)[C@H](N)Cc2ccc3ccccc3c2)CSSC[C@@H](C(=O)N[C@H](C(N)=O)C(C)O)NC1=O (stereo partly drawn) [Example 21, H-D-2-Nal^1-cyclo(Cys^2-Tyr^3-p-Ph-D-Phe^4-Lys^5-Val^6-Cys^7)-Thr^8-NH2.2 CH3COOH] | ≤ 100 nM | ≤ 50 nM | – | insoluble
5 | CC(C)[C@@H]1NC(=O)[C@H](CCCCN)NC(=O)[C@@H](CC2CCCCC2)NC(=O)[C@H](Cc2ccc(O)cc2)NC(=O)[C@@H](NC(=O)[C@H](N)Cc2ccc3ccccc3c2)CSSC[C@@H](C(=O)N[C@H](C(N)=O)[C@@H](C)O)NC1=O [Example 24, H-D-2-Nal^1-cyclo(Cys^2-Tyr^3-cyclohexyl-D-Ala^4-Lys^5-Val^6-Cys^7)-Thr^8-NH2.2 CH3COOH] | ≤ 100 nM | ≤ 5 nM | – | fibres
6 | CC(C)[C@@H]1NC(=O)[C@H](CCCCN)NC(=O)[C@@H](Cc2ccc(/N=N/c3ccccc3)cc2)NC(=O)[C@H](Cc2ccc(O)cc2)NC(=O)[C@@H](NC(=O)[C@H](N)Cc2ccc3ccccc3c2)CSSC[C@@H](C(=O)N[C@H](C(N)=O)[C@@H](C)O)NC1=O [Example 25, H-D-2-Nal^1-cyclo(Cys^2-Tyr^3-p-phenylazo-D-Phe^4-Lys^5-Val^6-Cys^7)-Thr^8-NH2.2 CH3COOH] | ≤ 1000 nM | ≤ 50 nM | – | 10 nm monodisperse nanotube

Now from value to compound, other results behind:

Row | Ki [1] | Ki [2] | solubility [4] | Structure (SMILES) | Assembly [3]
7 | ≤ 100 nM | ≤ 5 nM | – | CC(C)[C@@H]1NC(=O)[C@H](CCCCN)NC(=O)[C@@H](Cc2cccc(F)c2)NC(=O)[C@H](Cc2ccc(O)cc2)NC(=O)[C@@H](NC(=O)[C@H](N)Cc2ccc3ccccc3c2)CSSC[C@@H](C(=O)N[C@H](C(N)=O)C(C)O)NC1=O (stereo partly drawn) [Example 15, H-D-2-Nal^1-cyclo(Cys^2-Tyr^3-m-F-D-Phe^4-Lys^5-Val^6-Cys^7)-Thr^8-NH2.2 CH3COOH] (H-[d2Nal]CY[dPhe(3-F)]KVC[Thr(3ξ)]-NH2; disulfide 2-7) | monodisperse peptide nanotubes and 15.6 nm monodisperse nanotube
8 | ≤ 100 nM | ≤ 5 nM | – | CC(C)[C@@H]1NC(=O)[C@H](CCCCN)NC(=O)[C@@H](Cc2cc(F)cc(F)c2)NC(=O)[C@H](Cc2ccc(O)cc2)NC(=O)[C@@H](NC(=O)[C@H](N)Cc2ccc3ccccc3c2)CSSC[C@@H](C(=O)N[C@H](C(N)=O)C(C)O)NC1=O (stereo partly drawn) [Example 17, H-D-2-Nal^1-cyclo(Cys^2-Tyr^3-3,5-diF-D-Phe^4-Lys^5-Val^6-Cys^7)-Thr^8-NH2.2 CH3COOH] (H-[d2Nal]CY[dPhe(3,5-F2)]KVC[Thr(3ξ)]-NH2; disulfide 2-7) | monodisperse peptide nanotubes and 15.3 nm monodisperse nanotube
9 | ≤ 100 nM | ≤ 5 nM | – | CC(C)[C@@H]1NC(=O)[C@H](CCCCN)NC(=O)[C@@H](Cc2cccc(Br)c2)NC(=O)[C@H](Cc2ccc(O)cc2)NC(=O)[C@@H](NC(=O)[C@H](N)Cc2ccc3ccccc3c2)CSSC[C@@H](C(=O)N[C@H](C(N)=O)C(C)O)NC1=O (stereo partly drawn) [Example 18, H-D-2-Nal^1-cyclo(Cys^2-Tyr^3-m-Br-D-Phe^4-Lys^5-Val^6-Cys^7)-Thr^8-NH2.2 CH3COOH] (H-[d2Nal]CY[dPhe(3-Br)]KVC[Thr(3ξ)]-NH2; disulfide 2-7) | 18.4-18.8 nm monodisperse
